Key:
[1] = test system: bulbospinal Aug-I neurons of the VRG; experiment: Iontophoresis of DAMGO and opioid receptor blockers on bulbospinal inspiratory (Aug-I) neurons, extracellular recording; format: in vivo, cat; settings: for effect of opioid receptor blocker on DAMGO-mediated depression: naloxonazine 50-90 nA (15 neurons), naltrindole 50-100 nA (10 neurons)
[2] = test system: CO2 responsiveness of phrenic nerve activity; parameters: species or system cat; settings: in vivo
[3] = test system: D1-dopamine receptors (phrenic nerve activity); parameters: species or system cat; settings: in vivo

C=CCN1CC[C@]23c4c5ccc(O)c4O[C@H]2/C(=N/N=C2\CC[C@@]4(O)[C@H]6Cc7ccc(O)c8c7[C@@]4(CCN6CC=C)[C@H]2O8)CC[C@@]3(O)[C@H]1C5 [Naloxonazine]
DAMGO-mediated depression ([1]; in the presence of Naloxonazine (50-90 nA)): 20-35% | effect of opioid receptor blocker on DAMGO-mediated depression ([1]; iontophoresis): blocked DAMGO-mediated depression in all neurons tested

C[C@@H](NC(=O)[C@@H](N)Cc1ccc(O)cc1)C(=O)NCC(=O)N(C)[C@@H](Cc1ccccc1)C(=O)NCCO [DAMGO, D-Ala^2,N-Me-Phe^4,Gly-ol^5-Enkephalin]
DAMGO-mediated depression ([1]; DAMGO without blocker): 50-85% | time to restoration of control activity during recovery ([1]; after DAMGO iontophoresis): 60 to 90 s | action potential frequency ([1]; iontophoresis 1-3 minutes, 50-90 nA ejecting currents): 50-85 % of control | effect on discharges of Aug-I neurons ([1]; iontophoresis, 25 neurons, pentobarbital-anesthetized cats): depressed discharges of all Aug-I neurons

Br.C=CCN1CCc2c(cc(O)c(O)c2Cl)C(c2ccccc2)C1 (racemic) [(±)-chloro-APB, (+/−)6-chloro-7,8-dihydroxy-3-allyl-1-phenyl-2,3,4,5-tetrahydro-1H-3-benzazepine hydrobromide]
sensitivity of PN activity to CO2 [2]: did not significantly alter the sensitivity of PN activity to CO2

CN1CCc2cc(Cl)c(O)cc2[C@@H](c2ccccc2)C1 [R(+)-SCH-23390, (R)(+)-7-chloro-8-hydroxy-3-methyl-1-phenyl-2,3,4,5-tetrahydro-1H-3-benzazepine]
effect of D1 antagonist on D1 agonist effects [3]: blocked D1 agonist effects

Oc1ccc2c3c1O[C@H]1c4[nH]c5ccccc5c4C[C@@]4(O)[C@@H](C2)N(CC2CC2)CC[C@]314 [Naltrindole]
effect of opioid receptor blocker on DAMGO-mediated depression ([1]; iontophoresis): without effect on all neurons tested

Reference: US6706704B2 (priority 2001, dated 2004)
